Like-named read-outs stand apart in the source and are kept apart here.
How the values were obtained:
[1] = target: T1, human GPR120 (Homo sapiens, UniProt Q5NUL3); test: Intracellular Ca2+ (FLIPR Calcium 4, Flexstation) assay in human GPR120 stable HEK293 cell line coexpressing Gqi5; format: cell-based; conditions: for % Activity at 5 μM: 5 μM compound compared to the maximal activity of GW9508 at 6.7 μM (100%); for EC50: human GPR120 stably expressing cells, 8 concentrations 0.00001 to 20 μM
T1 construct: host or cells: HEK293 cells coexpressing Gqi5
T1 sequence (Q5NUL3 1-361): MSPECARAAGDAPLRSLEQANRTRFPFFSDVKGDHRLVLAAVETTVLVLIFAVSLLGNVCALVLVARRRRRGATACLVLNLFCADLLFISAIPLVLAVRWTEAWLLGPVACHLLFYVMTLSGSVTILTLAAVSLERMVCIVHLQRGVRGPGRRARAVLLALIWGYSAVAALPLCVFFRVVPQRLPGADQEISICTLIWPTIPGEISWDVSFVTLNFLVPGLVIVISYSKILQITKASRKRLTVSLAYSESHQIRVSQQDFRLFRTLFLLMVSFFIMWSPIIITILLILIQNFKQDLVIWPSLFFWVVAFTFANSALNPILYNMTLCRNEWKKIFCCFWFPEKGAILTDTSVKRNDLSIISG
Summary of the method: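 Calcium 4 dye-loaded HEK293 cells expressing N-terminally Flag-tagged human GPR120 with Gqi5 (HBSS/20 mM HEPES, pH 7.4; 50 min, 37 °C). Fluorescence (485/525 nm) read for 90 s after addition of compound at 8 concentrations, 0.00001–20 μM; EC50 from Max−Min change. % activity at 5 μM versus maximal GW9508 response (6.7 μM).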

[2] = system: C57BL/6J mice; test: Oral glucose tolerance test (OGTT); format: in vivo; conditions: 6 h fasted male C57BL/6J mice, 3 g/kg oral glucose, vs vehicle
Procedure: (§1) 8-10 week old male C57BL/6J mice (Harlan) were maintained on regular chow diet from Harlan (2018 Teklad Global). For the oral glucose tolerance test (OGTT), on the day of the experiment mice were fasted for 6 hours, then randomized into groups (n=10-15) to receive the tested GPR120 agonist at doses ranging from 30 mg/kg to 100 mg/kg or the vehicle (1% CMC, 2% TWEEN 80). For the intra-peritoneal glucose tolerance test (IPGTT), the mice were fasted for overnight, then randomized into groups (n=10-15) to receive the tested GPR120 agonist at doses ranging from 30 mg/kg to 100 mg/kg or the vehicle (1% CMC, 2% TWEEN 80). Compounds were delivered orally via gavage at 10 mL/kg. Blood glucose levels were measured by glucometer (Ascensia Elite XL, Bayer) at time −30 minutes before administration of compound. Blood glucose was measured again after 30 minutes (at time 0), and then the mice were dosed orally with 3 g/kg glucose at 10 mL/kg or were dosed intraperitoneally with 2 g/kg glucose at 10 mL/kg. Blood glucose measurements were taken 20, 40, 60, 90 and 120 minutes after glucose administration, by glucometer (Ascensia Elite XL, Bayer).
(§2) Glucose levels were plotted against time, and the incremental area under the curve (AUC) of the glucose excursion was determined from time 0 using Graphpad Prism 5.01. Outliers were excluded using Tukey's box plot outlier test, and statistical significance of differences in AUC of compound treatment compared to vehicle was determined by non-parametric Kruskal-Wallis test with Dunn's post test.
The compounds were tested at 100 mg/kg and the levels of blood glucose were determined in the presence and absence of the tested compounds. The percentage of glucose or intra-peritoneal reduction is reported as a percent reduction in AUC (area under the curve). The tested compound was selected as examples from the exemplified compounds.

[3] = system: C57BL/6J mice; test: Intra-peritoneal glucose tolerance test (IPGTT); format: in vivo; conditions: 100 mg/kg oral gavage, overnight fasted male C57BL/6J mice, 2 g/kg glucose i.p., vs vehicle
Procedure: as §1, with “Blood glucose measurements were taken 20, 40, 60, 90 and 120 minutes after glucose administration, by glucometer (Ascensia Elite XL, Bayer).” left out
as §2, with “test. […]” for “test.”

[4] = read-out: EC50 between >1 μM and ≦10 μM

% Activity at 5 μM [1]	EC50 ([1]; read-out: EC50 ≦ 1 μM)	Structure (SMILES)	further results
107%	–	COc1cc(CCC(=O)O)ccc1OCc1cc(C)nn1-c1ccc(Cl)cc1 [Example 133, 3-(4-((1-(4-chlorophenyl)-3-methyl-1H-pyrazol-5-yl)methoxy)-3-methoxyphenyl)propanoic acid]	EC50 [1, 4]: 1 to 10 µM
107%	≤ 1 µM	Cc1cc(COc2c(F)cc(CC(C)C(=O)O)cc2F)n(-c2cccc(Cl)c2)n1 (stereo not shown) [Example 89, 3-(4-((1-(3-chlorophenyl)-3-methyl-1H-pyrazol-5-yl)methoxy)-3,5-difluorophenyl)-2-methylpropanoic acid]	–
94%	≤ 1 µM	CCc1ccc(-n2nc(C)cc2COc2ccc3c(c2)CCC3CC(=O)O)cc1 (stereo not shown) [Example 121, 2-(5-((1-(4-ethylphenyl)-3-methyl-1H-pyrazol-5-yl)methoxy)-2,3-dihydro-1H-inden-1-yl)acetic acid]	–
85%	≤ 1 µM	Cc1cc(COc2c(F)cc(CCC(=O)O)cc2F)n(-c2ccc(Cl)cc2)n1 [Example 50, 3-(4-((1-(4-chlorophenyl)-3-methyl-1H-pyrazol-5-yl)methoxy)-3,5-difluorophenyl)propanoic acid]	–
58%	≤ 1 µM	Cc1cc(C)cc(-n2nc(C)cc2COc2c(F)cc(CC(C)C(=O)O)cc2F)c1 (stereo not shown) [Example 92, 3-(4-((1-(3,5-dimethylphenyl)-3-methyl-1H-pyrazol-5-yl)methoxy)-3,5-difluorophenyl)-2-methylpropanoic acid]	–
113%	≤ 1 µM	CCc1cc(COc2c(F)cc(CC(C)C(=O)O)cc2F)n(-c2ccc(Cl)cc2)n1 (stereo not shown) [Example 101, 3-(4-((1-(4-chlorophenyl)-3-ethyl-1H-pyrazol-5-yl)methoxy)-3,5-difluorophenyl)-2-methylpropanoic acid]	–
33%	–	Cc1cc(COc2c(F)cc(CC(C)C(=O)O)cc2F)n(-c2ccccn2)n1 (stereo not shown) [Example 124, 3-(3,5-difluoro-4-((3-methyl-1-(pyridin-2-yl)-1H-pyrazol-5-yl)methoxy)phenyl)-2-methylpropanoic acid]	EC50 ([1]; read-out: EC50 > 10 μM): > 10 µM
100%	≤ 1 µM	Cc1cc(COc2ccc(CCC(C)CC(=O)O)cc2)n(-c2ccc(Cl)cc2)n1 (stereo not shown) [Example 71, 5-(4-((1-(4-chlorophenyl)-3-methyl-1H-pyrazol-5-yl)methoxy)phenyl)-3-methyl pentanoic acid]	–
96%	≤ 1 µM	O=C(O)C(F)(F)Cc1cc(F)c(OCc2snnc2-c2ccc(Cl)cc2)c(F)c1 [Example 52, 3-(4-((4-(4-chlorophenyl)-1,2,3-thiadiazol-5-yl)methoxy)-3,5-difluorophenyl)-2,2-difluoropropanoic acid]	–
95%	≤ 1 µM	Cc1cc(COc2c(F)cc(CC(C)C(=O)O)cc2F)n(-c2ccc(C(F)(F)F)cc2)n1 (stereo not shown) [Example 77, 3-(3,5-difluoro-4-((3-methyl-1-(4-(trifluoromethyl)phenyl)-1H-pyrazol-5-yl)methoxy)phenyl)-2-methylpropanoic acid]	–
84%	≤ 1 µM	Cc1cc(COc2c(F)cc(CCC(=O)O)cc2F)n(-c2ccc(F)c(F)c2)n1 [Example 53, 3-(4-((1-(3,4-difluorophenyl)-3-methyl-1H-pyrazol-5-yl)methoxy)-3,5-difluorophenyl)propanoic acid]	–

The remaining lines, values behind:

Structure (SMILES)	% Activity at 5 μM [1]	EC50 ([1]; read-out: EC50 ≦ 1 μM)	further results
Cc1cc(COc2c(F)cc(CC(C)C(=O)O)cc2F)n(-c2ccc(Cl)cc2)n1 (stereo not shown) [Example 36, 3-(4-((1-(4-chlorophenyl)-3-methyl-1H-pyrazol-5-yl)methoxy)-3,5-difluorophenyl)-2-methylpropanoic acid]	96%	≤ 1 µM	% reduction in OGTT AUC ([2]; 30 mg/kg oral gavage): 15%; % reduction in OGTT AUC ([2]; 100 mg/kg oral gavage): 45.2%; % reduction in IPGTT AUC [3]: 24%
Cc1cc(COc2c(F)cc(C[C@@H](C)C(=O)O)cc2F)n(-c2ccc(Cl)cc2)n1 [Example 43, (R)-3-(4-((1-(4-chlorophenyl)-3-methyl-1H-pyrazol-5-yl)methoxy)-3,5-difluorophenyl)-2-methylpropanoic acid]	–	–	% reduction in OGTT AUC ([2]; 30 mg/kg oral gavage): 20%; % reduction in OGTT AUC ([2]; 100 mg/kg oral gavage): 40%
Cc1cc(COc2c(F)cc(C[C@H](C)C(=O)O)cc2F)n(-c2ccc(Cl)cc2)n1 [Example 44, (S)-3-(4-((1-(4-chlorophenyl)-3-methyl-1H-pyrazol-5-yl)methoxy)-3,5-difluorophenyl)-2-methylpropanoic acid]	–	–	% reduction in OGTT AUC ([2]; 30 mg/kg oral gavage): 33%; % reduction in OGTT AUC ([2]; 100 mg/kg oral gavage): 39%
Cc1nc(-c2ccccc2)c(COc2c(F)cc(C3CC3C(=O)O)cc2F)s1 (stereo not shown) [Example 33, 2-(3,5-difluoro-4-((2-methyl-4-phenylthiazol-5-yl)methoxy)phenyl)cyclopropane carboxylic acid]	80%	≤ 1 µM	–
Cn1ncc(COc2c(F)cc(CCC(=O)O)cc2F)c1-c1ccccc1 [Example 13, 3-(3,5-difluoro-4-((1-methyl-5-phenyl-1H-pyrazol-4-yl)methoxy)phenyl)propanoic acid]	73%	–	EC50 [1, 4]: 1 to 10 µM
Cc1cc(COc2ccc3c(c2)CCC(CC(=O)O)C3)n(-c2ccc(Cl)cc2)n1 (stereo not shown) [Example 39, 2-(6-((1-(4-chlorophenyl)-3-methyl-1H-pyrazol-5-yl)methoxy)-1,2,3,4-tetrahydronaphthalen-2-yl)acetic acid]	100%	≤ 1 µM	–
Cc1noc(C)c1COc1c(F)cc(CCC(=O)O)cc1F [Example 23, 3-(4-((3,5-dimethylisoxazol-4-yl)methoxy)-3,5-difluorophenyl)propanoic acid]	63%	–	EC50 [1, 4]: 1 to 10 µM
O=C(O)CCc1cc(F)c(OCc2ncsc2-c2ccccc2)c(F)c1 [Example 28, 3-(3,5-difluoro-4-((5-phenylthiazol-4-yl)methoxy)phenyl)propanoic acid]	87%	≤ 1 µM	–
Cc1onc(-c2ccccc2)c1COc1c(F)cc(C2CC2C(=O)O)cc1F (stereo not shown) [Example 16, 2-(3,5-difluoro-4-((5-methyl-3-phenylisoxazol-4-yl)methoxy)phenyl)cyclopropanecarboxylic acid]	60%	≤ 1 µM	–
Cc1cc(COc2c(F)cc(CCC(=O)O)cc2F)n(C(C)(C)C)n1 [Example 41, 3-(4-((1-tert-butyl-3-methyl-1H-pyrazol-5-yl)methoxy)-3,5-difluorophenyl)propanoic acid]	50%	≤ 1 µM	–
O=C(O)CCc1cc(F)c(OCc2snnc2-c2cccc(Cl)c2)c(F)c1 [Example 32, 3-(4-((4-(3-chlorophenyl)-1,2,3-thiadiazol-5-yl)methoxy)-3,5-difluorophenyl)propanoic acid]	85%	≤ 1 µM	–
Cc1cc(COc2c(F)cc(CCC(=O)O)cc2F)n(C(C)C)n1 [Example 25, 3-(3,5-difluoro-4-((1-isopropyl-3-methyl-1H-pyrazol-5-yl)methoxy)phenyl)propanoic acid]	92%	–	EC50 [1, 4]: 1 to 10 µM
